In patent US9789156B2, “Combination anti-human epidermal growth factor receptor 2 (anti-HER2) cancer therapy using mucin 1 (MUC1) peptides and hemotherapeutics” (DANA-FARBER CANCER INSTITUTE, INC., priority 2013, dated 2017):
pIC50: −log10 of the molar value. Where two headings read alike, the source gives them in different places. Square brackets hold non-standard residues; d marks the D form. Peptide text beside a SMILES is read from it.

Columns and labels:
BT474 cells = type: cell-based, human; details: 72 h
Method: (§1) Cell culture. SKBR3 and BT474 cells were obtained from ATCC (Rockville, Md.). SKBR3 and BT474 were maintained in McCoy's 5a modified medium and Dulbecco's modified Eagle medium/Ham F12 (1:1) supplemented with 10% heat-inactivated FBS, 100 units/ml penicillin, […] streptomycin, and 2 mM L-glutamine. […] Cells were treated with GO-203 and CP-2 peptides (AnaSpec). […] Viability was determined by trypan blue exclusion.
(§2) Determination of IC50 and synergism. Cells were seeded on 96-well plates in 100 μl of growth medium at a density of 3000 cells per well. After 24 h, the cells were exposed to drugs in treatment medium for an additional 72 h. Cell viability was assessed using the alamar blue viability assay (Invitrogen). Triplicate wells of each treatment were analyzed and each experiment was done three times. The IC50 values were determined by nonlinear regression of the dose-response data using Prism 5.0 for Mac OSX (GraphPad Software). […] Cell viability was determined after treatment for 72 h. The combination index (CI) was calculated to determine the presence of synergism (CI<1) or antagonism (CI>1) using CalcuSyn software (Biosoft).

SKBR3 cells = type: cell-based, human
Method: as §1, §2

BT474R tumor xenografts = assay: Trastuzumab-resistant BT474R tumor xenograft model; type: in vivo, BALB/c nu/nu mice; details: 7.5 mg/kg GO-203 intravenously each day for 21 days
Method: FIGS. 5A-G. Targeting MUC1-C in trastuzumab-resistant cells suppresses HER3 activation and inhibits growth and clonogenic survival. (FIG. 5A) Lysates from the indicated SKBR3R (left) and BT474R (right) cells were immunoblotted (IB) with anti-p-HER3 and anti-HER3. (FIG. 5B) The indicated SKBR3R (left) and BT474R (right) cells were seeded at 4000 and 1000 cells per well, respectively, and incubated for 12 days. The colony number is expressed as the mean±s.e. of three replicates. (FIG. 5C) SKBR3R cells were treated with […] GO-203 for the indicated times. Lysates were immunoblotted with the indicated antibodies. (FIG. 5D) SKBR3R cells were left untreated (Control; CTL) or treated with […] GO-203 for the indicated times. Cell number (mean±s.e. of three determinations) was determined by Trypan blue staining. (FIG. 5E) BT474R cells were treated with […] GO-203 for the indicated times. Lysates were immunoblotted with the indicated antibodies. (FIG. 5F) BT474R cells were left untreated (Control; CTL) or treated with […] GO-203 for the indicated times. Cell number (mean±s.e. of three determinations) was determined by Trypan blue staining. […] The results are expressed as tumor volume (mean±s.e. for the eight mice in each group).
Trastuzumab-resistant BT474R tumor xenograft model. […] Tumor volumes were calculated as described (Raina et al., 2011).

SKBR3R cells = assay: cells; type: cell-based; details: Homo sapiens, 72 h
Method: as §1, §2
(§3) Assessment of drug interaction by Bliss independence. […] Using this equation, if the experimentally measured inhibition is greater than Ei, then the combination is synergistic.38 Plots were generated by Prism GraphPad software.

BT474R cells = assay: cells; type: cell-based, human; details: for IC50: Homo sapiens, 72 h
Method: as §1, §2, §3

pIC50 (BT474 cells) | pIC50 (SKBR3 cells) | weight loss (BT474R tumor xenografts) | IC50 (SKBR3R cells; read-out: Lapatinib (μM) IC50, SKBR3R cells, 72 h, lapatinib alone (Table 3)) [µM] | IC50 (SKBR3R cells; read-out: Lapatinib (μM) IC50, SKBR3R cells, 72 h, lapatinib alone (Table 4)) [µM] | IC50 (SKBR3R cells; read-out: Lapatinib (μM) IC50 with GO-203, SKBR3R cells, 72 h, with 4 μM GO-203) [µM] | IC50 (SKBR3R cells; read-out: Lapatinib (μM) IC50 with Trastuzumab and GO-203, SKBR3R cells, 72 h, with 40 nM trastuzumab+4 μM GO-203) [µM] | IC50 (SKBR3R cells; read-out: Lapatinib (μM) IC50 with Trastuzumab, SKBR3R cells, 72 h, with 40 nM trastuzumab) [µM] | IC50 (BT474R cells; read-out: Lapatinib (μM) IC50, BT474R cells, 72 h, lapatinib alone (Table 3)) [µM] | IC50 (BT474R cells; read-out: Lapatinib (μM) IC50, BT474R cells, 72 h, lapatinib alone (Table 4)) [µM] | IC50 (BT474R cells; read-out: Lapatinib (μM) IC50 with GO-203, BT474R cells, 72 h, with 4 μM GO-203) [µM] | IC50 (BT474R cells; read-out: Lapatinib (μM) IC50 with Trastuzumab and GO-203, BT474R cells, 72 h, with 40 nM trastuzumab+4 μM GO-203) [µM] | IC50 (BT474R cells; read-out: Lapatinib (μM) IC50 with Trastuzumab, BT474R cells, 72 h, with 40 nM trastuzumab) [µM] | SMILES | Fold change (BT474R cells; BT474R cells, lapatinib IC50 alone vs with GO-203)
4.99 | 5.23 | no weight loss | – | – | – | – | – | – | – | – | – | – | N=C(N)NCCC[C@@H](N)C(=O)N[C@H](CCCNC(=N)N)C(=O)N[C@H](CCCNC(=N)N)C(=O)N[C@H](CCCNC(=N)N)C(=O)N[C@H](CCCNC(=N)N)C(=O)N[C@H](CCCNC(=N)N)C(=O)N[C@H](CCCNC(=N)N)C(=O)N[C@H](CCCNC(=N)N)C(=O)N[C@H](CCCNC(=N)N)C(=O)N[C@H](CS)C(=O)N[C@H](CCC(N)=O)C(=O)N[C@H](CS)C(=O)N[C@H](CCCNC(=N)N)C(=O)N[C@H](CCCNC(=N)N)C(=O)N[C@H](CCCCN)C(=O)N[C@H](CC(N)=O)C(=O)O [GO-203] (H-[dR][dR][dR][dR][dR][dR][dR][dR][dR][dC][dQ][dC][dR][dR][dK][dN]-OH) | –
– | – | – | 1.36 | 1.7 | 0.94 | 0.93 | 1.5 | 1.43 | 1.5 | 0.67 | 0.22 | 1.2 | CS(=O)(=O)CCNCc1ccc(-c2ccc3ncnc(Nc4ccc(OCc5cccc(F)c5)c(Cl)c4)c3c2)o1 [Lapatinib] | 2.13
